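48-hour exposure; five concentrations; linearly interpolated endpoints. GI50 = concentration required for 50% inhibition of growth. Definition used: TGI = concentration required for complete inhibition of growth.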
How the values were obtained:
Assay in all cases: NCI-60 cell line screen, 48 h
COLO 205 colon = test system: COLO 205 colon
HCC-2998 colon = test system: HCC-2998 colon
HCT-116 colon = test system: HCT-116 colon
IGROV1 ovarian = test system: IGROV1 ovarian
NCI/ADR-RES ovarian = test system: NCI/ADR-RES ovarian
OVCAR-8 ovarian = test system: OVCAR-8 ovarian
SF-268 CNS = test system: SF-268 CNS
UO-31 renal = test system: UO-31 renal
M14 melanoma = test system: M14 melanoma
NCI-H226 lung = test system: NCI-H226 lung

Compound: CC1(O)COCCCCOc2c(CN)cccc2NC(=O)c2nc(cnc2N)-c2ccc(cc2)S(=O)(=O)C(C)(C)C1 (stereo not given)
- GI50 (COLO 205 colon): 0.546 µM
- TGI (COLO 205 colon): 2.17 µM
- GI50 (HCC-2998 colon): 1.48 µM
- TGI (HCC-2998 colon): 2.87 µM
- GI50 (HCT-116 colon): 0.129 µM
- TGI (HCT-116 colon): 1.12 µM
- GI50 (IGROV1 ovarian): 1.28 µM
- TGI (IGROV1 ovarian): 2.7 µM
- GI50 (NCI/ADR-RES ovarian): 1.71 µM
- TGI (NCI/ADR-RES ovarian): 4.02 µM
- GI50 (OVCAR-8 ovarian): 1.31 µM
- TGI (OVCAR-8 ovarian): 3.63 µM
- GI50 (SF-268 CNS): 1.51 µM
- TGI (SF-268 CNS): 3.19 µM
- GI50 (UO-31 renal): 1.06 µM
- TGI (UO-31 renal): 2.31 µM

Compound: Cc1c2cc[n+](C)cc2c(C)c2c1oc1ccccc12
- TGI (COLO 205 colon): 14.8 µM
- TGI (HCC-2998 colon): 12.3 µM
- TGI (HCT-116 colon): 24.5 µM
- TGI (IGROV1 ovarian): 52.6 µM
- TGI (M14 melanoma): 31.5 µM
- TGI (NCI-H226 lung): 10.1 µM
- TGI (NCI/ADR-RES ovarian): > 100 µM
- TGI (OVCAR-8 ovarian): 29.8 µM
- TGI (SF-268 CNS): 2.71 µM
- TGI (UO-31 renal): > 100 µM

Compound: COc1ccc2c(c1)/C(=C\c1c(Cl)n(-c3ccccc3)c3ccccc13)C(=O)N2
- TGI (COLO 205 colon): 21.9 µM
- TGI (HCC-2998 colon): 22.2 µM
- TGI (HCT-116 colon): 14.6 µM
- TGI (IGROV1 ovarian): 27.9 µM
- TGI (M14 melanoma): 15 µM
- TGI (NCI-H226 lung): 24.5 µM
- TGI (NCI/ADR-RES ovarian): 7.98 µM
- TGI (OVCAR-8 ovarian): > 100 µM
- TGI (SF-268 CNS): 20.3 µM
- TGI (UO-31 renal): 18.3 µM

Compound: O=C(NC(Cc1ccc(I)cc1)C(=O)O)c1ccc(Cl)cc1 (stereo not given)
- TGI (COLO 205 colon): > 100 µM
- TGI (HCC-2998 colon): > 100 µM
- TGI (HCT-116 colon): > 100 µM
- TGI (IGROV1 ovarian): > 100 µM
- TGI (NCI-H226 lung): > 100 µM
- TGI (NCI/ADR-RES ovarian): > 100 µM
- TGI (OVCAR-8 ovarian): > 100 µM
- TGI (SF-268 CNS): > 100 µM
- TGI (UO-31 renal): > 100 µM

Compound: CO/N=C(\C)c1cccc(Nc2nc3ccccc3c3occc23)c1
- TGI (COLO 205 colon): 24.5 µM
- TGI (HCC-2998 colon): 28.8 µM
- TGI (HCT-116 colon): 23.8 µM
- TGI (M14 melanoma): 30.7 µM
- TGI (NCI-H226 lung): 7.38 µM
- TGI (NCI/ADR-RES ovarian): 30.7 µM
- TGI (OVCAR-8 ovarian): 33.4 µM
- TGI (SF-268 CNS): 32.5 µM

Compound: CC1C(=O)C(C)C(c2ccco2)N(N=O)C1c1ccco1 (stereo not given)
- TGI (COLO 205 colon): > 100 µM
- TGI (HCC-2998 colon): > 100 µM
- TGI (HCT-116 colon): > 100 µM
- TGI (IGROV1 ovarian): > 100 µM
- TGI (NCI-H226 lung): > 100 µM
- TGI (NCI/ADR-RES ovarian): > 100 µM
- TGI (OVCAR-8 ovarian): > 100 µM
- TGI (SF-268 CNS): > 100 µM
- TGI (UO-31 renal): > 100 µM

Compound: CSc1ccc(/C=C2\N=C(c3ccccc3)N(/N=C3\C(=O)Nc4ccccc43)C2=O)cc1
- TGI (COLO 205 colon): > 100 µM
- TGI (HCC-2998 colon): > 100 µM
- TGI (HCT-116 colon): > 100 µM
- TGI (IGROV1 ovarian): > 100 µM
- TGI (M14 melanoma): > 100 µM
- TGI (NCI/ADR-RES ovarian): > 100 µM
- TGI (OVCAR-8 ovarian): > 100 µM
- TGI (SF-268 CNS): > 100 µM
- TGI (UO-31 renal): > 100 µM

Compound: COC(=O)c1ccccc1C1=C([N+](=O)[O-])C(c2cccc(Br)c2)C(C#N)=C(N)O1 (stereo not given)
- TGI (COLO 205 colon): > 100 µM
- TGI (HCC-2998 colon): > 100 µM
- TGI (HCT-116 colon): 92.9 µM
- TGI (IGROV1 ovarian): 77.6 µM
- TGI (M14 melanoma): 77.5 µM
- TGI (NCI-H226 lung): > 100 µM
- TGI (NCI/ADR-RES ovarian): 65.9 µM
- TGI (OVCAR-8 ovarian): 45.1 µM
- TGI (SF-268 CNS): 93.3 µM

Compound: CCO[C@]12CCC[C@H]1[C@@H]1C(=O)c3ccccc3C(=O)C1=C(C)O2
- TGI (COLO 205 colon): > 100 µM
- TGI (HCC-2998 colon): > 100 µM
- TGI (IGROV1 ovarian): > 100 µM
- TGI (M14 melanoma): > 100 µM
- TGI (NCI/ADR-RES ovarian): > 100 µM
- TGI (OVCAR-8 ovarian): > 100 µM
- TGI (SF-268 CNS): > 100 µM
- TGI (UO-31 renal): > 100 µM

Compound: O=C1OC2(OC2c2ccc(Cl)cc2)c2ccccc21 (stereo not given)
- TGI (COLO 205 colon): > 100 µM
- TGI (HCC-2998 colon): > 100 µM
- TGI (HCT-116 colon): > 100 µM
- TGI (IGROV1 ovarian): > 100 µM
- TGI (M14 melanoma): > 100 µM
- TGI (NCI-H226 lung): > 100 µM
- TGI (OVCAR-8 ovarian): > 100 µM
- TGI (SF-268 CNS): > 100 µM
- TGI (UO-31 renal): > 100 µM

Compound: COc1cc([N+](=O)[O-])ccc1NC(=O)c1cccc([N+](=O)[O-])c1O
- TGI (COLO 205 colon): 40.3 µM
- TGI (HCC-2998 colon): > 100 µM
- TGI (HCT-116 colon): > 100 µM
- TGI (IGROV1 ovarian): > 100 µM
- TGI (M14 melanoma): > 100 µM
- TGI (NCI-H226 lung): > 100 µM
- TGI (OVCAR-8 ovarian): > 100 µM
- TGI (SF-268 CNS): > 100 µM
- TGI (UO-31 renal): 56.5 µM

Compound: CCSc1nc(-c2cccs2)nc2ccc(I)cc12
- TGI (COLO 205 colon): > 100 µM
- TGI (HCC-2998 colon): > 100 µM
- TGI (HCT-116 colon): > 100 µM
- TGI (IGROV1 ovarian): > 100 µM
- TGI (M14 melanoma): > 100 µM
- TGI (NCI-H226 lung): > 100 µM
- TGI (NCI/ADR-RES ovarian): > 100 µM
- TGI (OVCAR-8 ovarian): > 100 µM
- TGI (SF-268 CNS): > 100 µM
- TGI (UO-31 renal): > 100 µM

Compound: CCCCCCCN(CCCCCCC)CC(O)c1cc2ccccc2c2cc(Br)ccc12 (stereo not given)
- TGI (COLO 205 colon): > 100 µM
- TGI (HCC-2998 colon): 45.7 µM
- TGI (HCT-116 colon): > 100 µM
- TGI (IGROV1 ovarian): > 100 µM
- TGI (M14 melanoma): 76.7 µM
- TGI (NCI/ADR-RES ovarian): > 100 µM
- TGI (OVCAR-8 ovarian): > 100 µM
- TGI (SF-268 CNS): 54.8 µM
- TGI (UO-31 renal): > 100 µM

Compound: CCc1ccc2c(c1)C(=O)c1c-2n(CCCN)c(=O)c2cc([N+](=O)[O-])ccc12
- GI50 (COLO 205 colon): 1.21 µM
- TGI (COLO 205 colon): 2.51 µM
- GI50 (HCC-2998 colon): 0.376 µM
- TGI (HCC-2998 colon): 1.12 µM
- GI50 (HCT-116 colon): 0.573 µM
- TGI (HCT-116 colon): 1.89 µM
- GI50 (IGROV1 ovarian): 1.22 µM
- TGI (IGROV1 ovarian): 2.56 µM
- GI50 (M14 melanoma): 1.56 µM
- TGI (M14 melanoma): 3.08 µM
- GI50 (NCI/ADR-RES ovarian): 1.62 µM
- TGI (NCI/ADR-RES ovarian): 3.29 µM
- GI50 (OVCAR-8 ovarian): 1.02 µM
- TGI (OVCAR-8 ovarian): 2.35 µM
- GI50 (UO-31 renal): 1.38 µM
- TGI (UO-31 renal): 2.69 µM

Compound: Oc1ccc(-c2nc3cc(F)ccc3s2)cc1
- TGI (COLO 205 colon): 33.9 µM
- TGI (HCC-2998 colon): 28.3 µM
- TGI (HCT-116 colon): 42.1 µM
- TGI (IGROV1 ovarian): 43.4 µM
- TGI (M14 melanoma): 47.6 µM
- TGI (NCI-H226 lung): 39.7 µM
- TGI (NCI/ADR-RES ovarian): 42.4 µM
- TGI (OVCAR-8 ovarian): > 100 µM
- TGI (SF-268 CNS): 74 µM
- TGI (UO-31 renal): 49.9 µM

Compound: c1ccc([P+](c2ccccc2)(c2ccccc2)c2ccc(-c3ccc([P+](c4ccccc4)(c4ccccc4)c4ccccc4)cc3)cc2)cc1
- TGI (COLO 205 colon): 31.5 µM
- TGI (HCC-2998 colon): > 100 µM
- TGI (HCT-116 colon): 58 µM
- TGI (IGROV1 ovarian): 13.4 µM
- TGI (M14 melanoma): > 100 µM
- TGI (NCI-H226 lung): 71 µM
- TGI (NCI/ADR-RES ovarian): > 100 µM
- TGI (OVCAR-8 ovarian): 85.5 µM
- TGI (SF-268 CNS): > 100 µM

— PubChem BioAssay (NCI)
